Test results: patent US10167326B2, “Alpha-fetoprotein “ring and tail” peptides” (ALBANY MEDICAL COLLEGE, priority 2010, dated 2019)
“Also recorded” adds a separate entry of the source. Non-standard residues stand in square brackets, D forms with d. Residues, ends and D or L forms follow the SMILES beside them. Hyp = O=C(O)[C@@H]1C[C@@H](O)CN1

What was measured:
[1] = system: E2-stimulated immature mouse uterine growth; assay: immature mouse uterine growth assay (inhibition of E2-stimulated uterine growth); type: in vivo
Protocol: Four cyclic peptides of decreasing ring size (Table 1) were synthesized and were assessed for antiestrogenic activity using the immature mouse uterine assay. Negative control mice received saline alone. Positive control mice received E2 alone. AFPep was used as a positive control peptide and cyclic Scr was used as a peptide control. Mice were injected intraperitoneally (i.p.) with each of these peptides at a dose of 1 μg/mouse. One hour later mice received 0.5 ug 17β-estradiol (E2) i.p. Twenty-two hours later uteri were dissected, weighed, and normalized to body weight. The results are reported as mean±S.E (n=5) for four independent experiments.
(§1) A ‘tail’ was attached to a nine-amino acid ring and included 1 or 2 amino acids defined as hydrophilic or hydrophobic based on the nature of their side-chains. Tails comprising the following amino acid(s): serine (S), tyrosine (Y), […], glutamic acid (E), phenylalanine-serine (FS) and tyrosine-isoleucine (YI) represent hydrophilic tails and tails comprising the following amino acid(s), phenylalanine (F), isoleucine (I) and phenylalanine-isoleucine (FI) are hydrophobic tails. All peptides were administered at a dose of 1 μg/mouse intraperitoneally or 10 μg/mouse by oral gavage. Values are presented as mean±S.E. (n=5). In culture, T47D cells were treated with each peptide at a concentration of 1 μM. Values are presented as mean±S.E (n=6). […] Wilcoxon Rank Sum Test.
(§2) All peptides were administered at a dose of 1 μg/mouse intraperitoneally or 10 μg/mouse by oral gavage. Values are presented as mean±S.E (n=5). In culture, T47D cells were treated with each peptide at a concentration of 1 μM. Values are presented as mean±S.E (n=6). […] Wilcoxon Rank Sum Test.
To evaluate peptide-induced inhibition by the peptide of the present invention of estrogen-stimulated proliferation of normal tissue, the immature mouse uterine growth assay was utilized. Briefly, 13-15 day-old Swiss/Webster female mice, 6-8 g in body weight, were distributed into treatment groups of 5 mice per group so that each group contained animals of the same range of body weight. The peptide of the invention was injected i.p., s.c., or p.o. into the mice. One hour later, estradiol (E2) or vehicle control for E2 was injected i.p. Twenty-two hours after the second injection, uteri were harvested, trimmed free of mesenteries, and immediately weighed. The uterine weights were normalized to mouse body weights to compensate for differences in body weight among litters of the same age. Experiments employed a minimum of five mice per group and the mean normalized uterine weight±SE for each group was calculated. Percent growth inhibition in a test group was calculated from normalized uterine wet weights as described below.
The ability to inhibit E2-stimulated growth of normal mouse uterus was used as a screening assay for biological activity of AFPep analogs. In general, inhibitory activity ≥20% is considered to be biologically significant. Each analog's inhibitory effect on E2-stimulated growth was compared to AFPep (a positive control) and to PGVGQ (SEQ ID NO: 51)(a negative control). PGVGQ (SEQ ID NO: 51 amino acids 478-482 of AFP) is a portion of the primary structure of AFP near to the anti-cancer active site of AFP and is comprised of amino acids (P, V, and G) that are important components of AFPep.

[2] = system: T47D human breast cancer cells; assay: T47D cell proliferation assay in the presence of E2; type: cell-based
Protocol: Anticancer activity of the cyclic peptides was also evaluated using the T47D cell proliferation assay. T47D cells were cultured on collagen-IV coated 24-well plates and treated with each of above peptides in the presence of E2. Final peptide concentrations of each peptide were 10^−6 M and final E2 concentration was 1 nM. Values are reported as mean±SEM (n=6) of four independent experiments. […] One-way ANOVA followed by Tukey's multiple comparison test. p≤0.05.
as §1, §2

[3] = system: estrogen receptor phosphorylation at serine-118; conditions: cited from earlier work
[4] = system: c-erb2; conditions: after stimulation by E2 or EGF in MCF-7 cells; cited from earlier work
[5] = system: T47D human breast cancer cells; assay: T47D cell proliferation assay in the presence of E2; type: cell-based; conditions: different concentrations in vitro (FIG. 7)
[6] = system: p53; conditions: cited from earlier work
[7] = system: p21Cip1; conditions: cited from earlier work
[8] = molecular target: T1, estrogen receptor (Homo sapiens, UniProt P03372); conditions: cited from earlier work
T1 sequence (P03372 1-595): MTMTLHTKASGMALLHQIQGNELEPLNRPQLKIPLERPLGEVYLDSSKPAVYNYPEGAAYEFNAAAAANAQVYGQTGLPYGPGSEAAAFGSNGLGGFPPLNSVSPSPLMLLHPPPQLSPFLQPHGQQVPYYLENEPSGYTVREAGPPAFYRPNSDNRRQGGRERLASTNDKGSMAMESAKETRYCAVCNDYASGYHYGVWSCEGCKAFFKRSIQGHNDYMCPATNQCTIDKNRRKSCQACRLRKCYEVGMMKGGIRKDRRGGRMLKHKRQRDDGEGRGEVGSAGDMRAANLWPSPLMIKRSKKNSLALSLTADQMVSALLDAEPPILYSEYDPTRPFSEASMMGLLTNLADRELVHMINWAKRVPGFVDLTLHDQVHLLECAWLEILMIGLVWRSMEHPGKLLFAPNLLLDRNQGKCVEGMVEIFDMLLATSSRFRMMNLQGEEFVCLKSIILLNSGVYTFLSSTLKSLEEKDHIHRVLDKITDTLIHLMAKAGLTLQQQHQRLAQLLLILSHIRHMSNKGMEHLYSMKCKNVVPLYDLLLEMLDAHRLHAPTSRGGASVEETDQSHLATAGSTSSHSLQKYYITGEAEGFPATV

## CC(C)[C@@H]1NC(=O)[C@@H]2C[C@@H](O)CN2C(=O)[C@H]([C@@H](C)O)NC(=O)[C@H](CCCCN)NC(=O)[C@H](CCC(=O)O)NC(=O)[C@H](CC(N)=O)NC(=O)CNC(=O)[C@@H]2C[C@@H](O)CN2C(=O)[C@H](CC(N)=O)NC1=O [AFPep, cyclo[EKTOVNOGN], reference compound] (cyclo(EKT[Hyp]VN[Hyp]GN))
[1]; 1 μg/mouse i.p. (FIG. 5A)
  antiestrogenic activity of cyclic analogs of different ring size (uterine growth inhibition): significantly better inhibition of E2-stimulated growth in vivo and in vitro than the other analogs
[1]; combination of AFPep and ring and tail antagonist with disrupted pharmacophore and hydrophilic tail (FIG. 11, 12)
  uterine growth inhibition dose response of AFPep combined with antagonist analog: restored by addition of the antagonist analog; also recorded: can be overcome by using a combination of AFPep and an analog with a hydrophilic tail; also recorded: sigmoidal dose range curve
[1]; over a number of doses (FIG. 6)
  inhibition of E2-stimulated uterine growth, dose response profile: significantly inhibited E2-stimulated uterine growth to a dose of 10 μg and then loses its effectiveness at higher doses
[2]; peptide 1 μM, E2-stimulated, mean±S.E (n=6), * p<0.05 vs E2 alone
  Inhibition ± S.E, % T47D cell proliferation: 51 ± 4* %
[2]; peptide 10^−6 M, E2 1 nM (FIG. 5B)
  anticancer activity of cyclic analogs of different ring size (T47D proliferation inhibition): significantly different from the other analogs; also recorded: significantly better inhibition of E2-stimulated growth in vivo and in vitro than the other analogs
[3]
  E2-induced estrogen receptor phosphorylation at serine-118: significantly inhibited
[4]
  transactivation of c-erb2 leading dephosphorylated ERK1/2: prevent the transactivation of c-erb2
[5]
  inhibition of E2-stimulated T47D human breast cancer cell growth, concentration response profile: inhibited E2-stimulated T47D cell growth up to a concentration of 10^−6M and then loss its effectiveness at higher concentrations
[6]
  serine-15 phosphorylation on p53: significantly increased
[7]
  nuclear p21Cip1 activation: increases
[8]
  binding to the E2-binding site of the estrogen receptor: does not bind
